Converted amounts (≈) assume the structure as drawn.

Test [1] has as its system PBL. Put plainly: Stimulation of PHA-induced Homo sapiens (human) peripheral blood lymphocytes proliferation assessed as increase in [3H]-thymidine incorporation at 50 ug/ml after 72 hr by beta-scintillation counting analysis relative to control. It is filed as functional. For orientation: Dividing cells build labelled thymidine or BrdU into new DNA.
Test [2] concerns Neutrophil. Put plainly: Immunomodulatory activity in neutrophils assessed as decrease in oxidative burst after 30 min by luminol-enhanced chemiluminescence assay. The class given is functional, cell-based. Conditions: for IC50: 0.5 h.
The subject of test [3] is PBL. The test is described as follows: Antiproliferative activity against PHA-induced Homo sapiens (human) peripheral blood lymphocytes assessed as inhibition of [3H]-thymidine incorporation after 72 hr by beta-scintillation counting analysis. It is filed as functional, cell-based.
Test [4] deals with PBL. Put plainly: Antiproliferative activity against PHA-induced Homo sapiens (human) peripheral blood lymphocytes assessed as inhibition of [3H]-thymidine incorporation at 50 ug/ml after 72 hr by beta-scintillation counting analysis relative to control. It is filed as functional.
Test [5] has as its system Neutrophil. The test is described as follows: Immunomodulatory activity in neutrophils assessed as decrease in oxidative burst at 50 ug/mL after 30 min by luminol-enhanced chemiluminescence assay relative to control. More on the design: scale not given: the % may be the effect or the level left. It is filed as functional.

As a reminder, the IC50 is the concentration that inhibits the measured activity by half. `C=C(C)[C@@H]1CC[C@]2(C(=O)O)CC[C@]3(C)[C@H](CC[C@@H]4[C@@]5(C)CC[C@H](O)C(C)(C)[C@@H]5CC[C@]43C)[C@@H]12` [BETULINIC ACID]: the Activity with PBL [1] was determined as 38.2%. For the same molecule, in the test on Neutrophil [2], the Activity entry is “Dose-dependent effect” and the IC50 turned out to be 11.1 µg/mL.

Regarding `C=C(C)[C@@H]1CC[C@]2(C(=O)OCC)CC[C@]3(C)[C@H](CC[C@@H]4[C@@]5(C)CC[C@H](O)C(C)(C)[C@@H]5CC[C@]43C)[C@@H]12` [ETHYL BETULINATE], the IC50 is 12.9 µg/mL (≈ 26.6 µM) with PBL [3] and 3.85 µg/mL in the test with Neutrophil [2].

A word on the inhibition: it is the share of the control response that was lost under treatment. As for `C=C(C)[C@@H]1CC[C@]2(C)CC[C@]3(C)[C@H](CC[C@@H]4[C@@]5(C)CC[C@H](OC(C)=O)C(C)(C)[C@@H]5CC[C@]43C)[C@@H]12` [LUPENYL ACETATE], in the test with PBL [4], the inhibition at 50 µg/mL was 38.9%. Moreover, the Activity in the test with Neutrophil [5] turned out to be 41.12%.

For the molecule `C=C(C)[C@@H]1CC[C@]2(C)CC[C@]3(C)[C@H](CC[C@@H]4[C@@]5(C)CC[C@H](O)C(C)(C)[C@@H]5CC[C@]43C)[C@@H]12` [LUPEOL], in the test on PBL [3], the IC50 amounted to 13.2 µg/mL (≈ 30.8 µM) and the inhibition entry is “Dose-dependent effect”. Besides, in the test with Neutrophil [2], the Activity entry was “Dose-dependent effect” and the IC50 was 11.3 µg/mL.

For the origin of these results see ChEMBL document CHEMBL3044669, “Molecular modeling, structure activity relationship and immunomodulatory properties of some lupeol derivatives” (Med Chem Res, 2013).
